What was measured:
[1] = test system: Isogenic E. coli J58 strain carrying SHV-1; test: MIC determination, isogenic E. coli strains; format: cell-based
Outline: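 MIC is the lowest compound concentration leaving a transparent well after overnight (18 h) incubation at 37 °C. The test strain was E. coli J53 expressing plasmid-borne SHV-1 beta-lactamase from pBC-SK(+), adjusted to 0.5 McFarland. Compounds were twofold serially diluted, starting at 64 μg/mL, in CAMH broth supplemented with 20 μM apo-transferrin.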

[2] = test system: A. baumannii (JMI OXA-58); test: MIC determination; format: cell-based, Acinetobacter baumannii; conditions: class D carbapenemase producer, CAMH broth, 20 μM Apo-Transferrin, 37° C., 18 hours
Procedure: (§1) Sterile technique was used throughout these experiments. Suspensions of organisms were removed from storage (−80° C.) and partially thawed. Partially thawed organisms (1 μL) were inoculated into 3 mL sterile LB Broth in a sterile culture tube and capped, then cultured at 37° C. with shaking for 4-5 hours until the optical density at 600 nm (OD600) was greater than 0.1 on a single beam spectrophotometer.
(§2) The concentration of organisms was adjusted to 0.08-0.1 OD600 (0.5 McFarland units) by dilution with sterile cation-adjusted Meuller-Hinton (CAMH) broth. The suspensions were used within 30 minutes of preparation.
(§3) A stock solution was made of each test compound by measuring 6.4 mg of the compound on an analytical balance and dissolving it in DMSO (1 mL) to get a transparent solution. The solutions were stored at −20° C. and thawed prior to use.
(§4) Sterile CAMH broth (200 μL) containing 20 μM Apo-Transferrin was pipetted into the first row of 8 columns of a sterile, round-bottomed, transparent, 96-well microplate using an 8-channel pipette equipped with sterile tips. One hundred μL was pipetted into the wells of the remaining 11 rows.
(§5) With an 8-channel pipette equipped with sterile tips, 100 μL of the first row solution was transferred to the second row and mixed. The process was repeated for the second to third rows and continued through row 11. One hundred μL from row 11 was removed and discarded so that all 12 rows contained 100 μL. Row 12 contained no compound and rows 1-11 contained 64, 32, 16, 8, 4, 2, 1, 0.5, 0.25, 0.125, […] of a given compound.
(§6) Inoculant suspensions (0.5 μL) were added to the 12 wells of each column. The plates were then covered and incubated at 37° C. overnight for 18 hours.
(§7) For each organism the MIC was determined by identifying the transparent well with the lowest test compound concentration.

A. baumannii = test: MIC determination; format: cell-based, Acinetobacter baumannii; conditions: for MICs for an Acinetobacter baumannii strain, in words: review of Table 2
Procedure: as §1, §2, §3, §4, §5, §6, §7

CF (RR -1) = test: MIC determination; format: cell-based, Citrobacter freundii; conditions: CAMH broth, 20 μM Apo-Transferrin, 37° C., 18 hours
Procedure: as §1, §2, §3, §4, §5, §6, §7

ENC (ATCC NDM-1) = test: MIC determination; format: cell-based, Enterobacter cloacae; conditions: CAMH broth, 20 μM Apo-Transferrin, 37° C., 18 hours
Procedure: as §1, §2, §3, §4, §5, §6, §7

ENA (URMC-1) = test: MIC determination; format: cell-based, Enterobacter aerogenes; conditions: CAMH broth, 20 μM Apo-Transferrin, 37° C., 18 hours
Procedure: as §1, §2, §3, §4, §5, §6, §7

ENA (URMC-2) = test: MIC determination; format: cell-based, Enterobacter aerogenes; conditions: CAMH broth, 20 μM Apo-Transferrin, 37° C., 18 hours
Procedure: as §1, §2, §3, §4, §5, §6, §7

[3] = test system: Isogenic E. coli J58 strain carrying IMP-1; test: MIC determination, isogenic E. coli strains; format: cell-based
Outline: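 Broth microdilution in cation-adjusted Mueller-Hinton broth with 20 μM apo-transferrin, compound serially diluted two-fold from 64 μg/mL, against E. coli J53 carrying plasmid-borne IMP-1. Inoculum adjusted to 0.5 McFarland; plates incubated 18 h at 37° C. MIC taken as lowest concentration giving a clear well.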

EC(JMI OXA-48) = test: MIC determination; format: cell-based, Escherichia coli; conditions: CAMH broth, 20 μM Apo-Transferrin, 37° C., 18 hours
Procedure: as §1, §2, §3, §4, §5, §6, §7

EA (URMC -3) = test: MIC determination; format: cell-based; conditions: CAMH broth, 20 μM Apo-Transferrin, 37° C., 18 hours
Procedure: as §1, §2, §3, §4
To each well of the first row was pipetted 2.0 μL of the 6.4 mg/mL stock test compound stock solution to give 1:100 dilutions and a final concentration of 64 μg/mL and mixed.
as §5, §6, §7

KP (URMC-2) = test: MIC determination; format: cell-based, Klebsiella pneumoniae; conditions: CAMH broth, 20 μM Apo-Transferrin, 37° C., 18 hours
Procedure: as §1, §2, §3, §4, §5, §6, §7

KP (RR -1) = test: MIC determination; format: cell-based, Klebsiella pneumoniae; conditions: CAMH broth, 20 μM Apo-Transferrin, 37° C., 18 hours
Procedure: as §1, §2, §3, §4, §5, §6, §7

KP(GJ 5934 TEM-26) = test: MIC determination; format: cell-based, Klebsiella pneumoniae; conditions: CAMH broth, 20 μM Apo-Transferrin, 37° C., 18 hours
Procedure: as §1, §2, §3, §4, §5, §6, §7

KP (URMC-3) = test: MIC determination; format: cell-based, Klebsiella pneumoniae; conditions: CAMH broth, 20 μM Apo-Transferrin, 37° C., 18 hours
Procedure: as §1, §2, §3, §4, §5, §6, §7

KP (ATCC KPC-3) = test: MIC determination; format: cell-based, Klebsiella pneumoniae; conditions: CAMH broth, 20 μM Apo-Transferrin, 37° C., 18 hours
Procedure: as §1, §2, §3, §4, §5, §6, §7

KP(JMI KPC-2) = test: MIC determination; format: cell-based, Klebsiella pneumoniae; conditions: CAMH broth, 20 μM Apo-Transferrin, 37° C., 18 hours
Procedure: as §1, §2, §3, §4, §5, §6, §7

KP (GJ 5659 TEM-26) = test: MIC determination; format: cell-based, Klebsiella pneumoniae; conditions: CAMH broth, 20 μM Apo-Transferrin, 37° C., 18 hours
Procedure: as §1, §2, §3, §4, §5, §6, §7

KP (URMC-1) = test: MIC determination; format: cell-based, Klebsiella pneumoniae; conditions: CAMH broth, 20 μM Apo-Transferrin, 37° C., 18 hours
Procedure: as §1, §2, §3, §4, §5, §6, §7

PM (RR -1) = test: MIC determination; format: cell-based, Proteus mirabilis; conditions: CAMH broth, 20 μM Apo-Transferrin, 37° C., 18 hours
Procedure: as §1, §2, §3, §4, §5, §6, §7

KP(ATCC TEM-10/TEM-12) = format: cell-based, Klebsiella pneumoniae; conditions: CAMH broth, 20 μM Apo-Transferrin, 37° C., 18 hours
Procedure: as §1, §2, §3, §4, §5, §6, §7

[4] = test system: Pseudomonas aeruginosa (PA); test: MIC determination; format: cell-based; conditions: PA, CAMH broth, 20 μM Apo-Transferrin, 37° C., 18 hours
Outline: (§8)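 Using an iron-depleting medium (CAMH plus 20 μM apo-transferrin), organisms at 0.5 McFarland faced compound from 64 μg/mL downward in twofold steps. Readout: visual, after 18 h at 37 °C.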

[5] = test system: Pseudomonas aeruginosa PA (RR-1); test: MIC determination; format: cell-based; conditions: PA (RR-1), CAMH broth, 20 μM Apo-Transferrin, 37° C., 18 hours
Outline: as §8

[6] = test system: Pseudomonas aeruginosa PA-RR-(980151052); test: MIC determination; format: cell-based; conditions: PA-RR-(980151052), CAMH broth, 20 μM Apo-Transferrin, 37° C., 18 hours
Outline: as §8

[7] = test system: Pseudomonas aeruginosa PA-RR-(G8062859); test: MIC determination; format: cell-based; conditions: PA-RR-(G8062859), CAMH broth, 20 μM Apo-Transferrin, 37° C., 18 hours
Outline: as §8

SMILES	MICs for an Acinetobacter baumannii strain, in words (A. baumannii)	Mimimum Inhibitory Concentrations, CF (RR -1) (CF (RR -1))	Mimimum Inhibitory Concentrations, ENC (ATCC NDM-1) (ENC (ATCC NDM-1))	Mimimum Inhibitory Concentrations, EA (URMC -3) (EA (URMC -3))	Minimum Inhibitory Concentrations, KP (URMC-2) (KP (URMC-2))	Mimimum Inhibitory Concentrations, KP (RR -1) (KP (RR -1))	Minimum Inhibitory Concentrations, KP(GJ 5934 TEM-26) (KP(GJ 5934 TEM-26))	Minimum Inhibitory Concentrations, KP (URMC-3) (KP (URMC-3))	Minimum Inhibitory Concentrations, KP (ATCC KPC-3) (KP (ATCC KPC-3))	Minimum Inhibitory Concentrations, KP(JMI KPC-2) (KP(JMI KPC-2))	Minimum Inhibitory Concentrations, KP (GJ 5659 TEM-26) (KP (GJ 5659 TEM-26))	Minimum Inhibitory Concentrations, KP (URMC-1) (KP (URMC-1))	Mimimum Inhibitory Concentrations, PM (RR -1) (PM (RR -1))	Minimum Inhibitory Concentrations, KP(ATCC TEM-10/TEM-12) (KP(ATCC TEM-10/TEM-12))	other results
CC(C)(O/N=C(\C(=O)N[C@@H]1C(=O)N2C(C(=O)O)=C(C=Cc3ccc(C[n+]4ccc5cc(O)c(O)cc5c4)cc3)CS[C@H]12)c1csc(N)n1)C(=O)O (mixture of isomers) [Compound 435, 2-(4-((E/Z)-2-((6R,7R)-7-((Z)-2-(2-aminothiazol-4-yl)-2-(((2-carboxypropan-2-yl)oxy)imino)acetamido)-2-carboxy-8-oxo-5-thia-1-azabicyclo[4.2.0]oct-2-en-3-yl)vinyl)benzyl)-6,7-dihydroxyisoquinolin-2-ium]	low microgram/mL MICs	≤0.06 microgram/mL	>64 microgram/mL	0.5 microgram/mL	≤0.06 microgram/mL	≤0.06 microgram/mL	<0.06 microgram/mL	≤0.06 microgram/mL	>64 microgram/mL	4 microgram/mL	0.13 microgram/mL	≤0.06 microgram/mL	≤0.06 microgram/mL	2 microgram/mL	Mimimum Inhibitory Concentrations, SHV-1 ([1]; isogenic E. coli strain, SHV-1, CAMH broth, 20 μM Apo-Transferrin, 37° C., 18 hours): 0.13 microgram/mL; Minimum Inhibitory Concentrations, A. baumannii (JMI OXA-58) [2]: >64 microgram/mL; Minimum Inhibitory Concentrations, A. baumannii (A. baumannii; A. baumannii, CAMH broth, 20 μM Apo-Transferrin, 37° C., 18 hours): 1 microgram/mL; Minimum Inhibitory Concentrations, ENA (URMC-1) (ENA (URMC-1)): 0.13 microgram/mL; Minimum Inhibitory Concentrations, ENA (URMC-2) (ENA (URMC-2)): 0.13 microgram/mL; Mimimum Inhibitory Concentrations, IMP-1 ([3]; isogenic E. coli strain, IMP-1, CAMH broth, 20 μM Apo-Transferrin, 37° C., 18 hours): 0.13 microgram/mL; MICs for an E. coli strain carrying the gene for carbapenemase IMP-1, in words ([3]; review of Tables 4-1 and 4-2): low microgram/mL MICs; Minimum Inhibitory Concentrations, EC(JMI OXA-48) (EC(JMI OXA-48)): 0.5 microgram/mL; Minimum Inhibitory Concentrations, PA [4]: ≤0.06 microgram/mL; Minimum Inhibitory Concentrations, PA (RR-1) [5]: 0.25 microgram/mL; Minimum Inhibitory Concentrations, PA-RR-(980151052) [6]: 0.13 microgram/mL; Minimum Inhibitory Concentrations, PA-RR-(G8062859) [7]: 0.5 microgram/mL
CC(C)(O/N=C(\C(=O)N[C@@H]1C(=O)N2C(C(=O)O)=C(C=Cc3ccc(C[N+]4(C)Cc5c(Cl)c(O)c(O)c(Cl)c5C4)cc3)CS[C@H]12)c1csc(N)n1)C(=O)O (mixture of isomers) [Compound 431, 2-(4-((E/Z)-2-((6R,7R)-7-((Z)-2-(2-aminothiazol-4-yl)-2-(((2-carboxypropan-2-yl)oxy)imino)acetamido)-2-carboxy-8-oxo-5-thia-1-azabicyclo[4.2.0]oct-2-en-3-yl)vinyl)benzyl)-4,7-dichloro-5,6-dihydroxy-2-methylisoindolin-2-ium]	low microgram/mL MICs	1 microgram/mL	>64 microgram/mL	1 microgram/mL	0.13 microgram/mL	0.13 microgram/mL	0.5 microgram/mL	≤0.06 microgram/mL	>64 microgram/mL	8 microgram/mL	0.5 microgram/mL	0.25 microgram/mL	≤0.06 microgram/mL	16 microgram/mL	MIC ([1]; Escherichia coli, 18 h, read-out: Mimimum Inhibitory Concentrations, SHV-1): 0.13 µg/mL; MIC ([2]; Acinetobacter baumannii, read-out: Minimum Inhibitory Concentrations, A. baumannii (JMI OXA-58)): > 64 µg/mL; MIC (A. baumannii; Acinetobacter baumannii, A. baumannii, CAMH broth, 20 μM Apo-Transferrin, 37° C., 18 hours, read-out: Minimum Inhibitory Concentrations, A. baumannii): 1 µg/mL; MIC (ENA (URMC-1); Klebsiella aerogenes, read-out: Minimum Inhibitory Concentrations, ENA (URMC-1)): 0.5 µg/mL; MIC (ENA (URMC-2); Klebsiella aerogenes, read-out: Minimum Inhibitory Concentrations, ENA (URMC-2)): 0.5 µg/mL; MIC (EC(JMI OXA-48); Escherichia coli, read-out: Minimum Inhibitory Concentrations, EC(JMI OXA-48)): 0.5 µg/mL; MIC ([4]; Pseudomonas aeruginosa, read-out: Minimum Inhibitory Concentrations, PA): 0.25 µg/mL; MIC ([5]; Pseudomonas aeruginosa, read-out: Minimum Inhibitory Concentrations, PA (RR-1)): 0.13 µg/mL; MIC ([6]; Pseudomonas aeruginosa, read-out: Minimum Inhibitory Concentrations, PA-RR-(980151052)): 0.25 µg/mL; MIC ([7]; Pseudomonas aeruginosa, read-out: Minimum Inhibitory Concentrations, PA-RR-(G8062859)): 0.5 µg/mL

Reference: patent publication US20190100534A1, “Cephem Compounds with Latent Reactive Groups” (Gladius Pharmaceuticals, Inc., priority 2017, published 2019)
